Results taken from ChEMBL document CHEMBL2203072, “Enhanced anti-influenza agents conjugated with anti-inflammatory activity” (J Med Chem, 2012).
Calls of active or inactive are those of the source. The calls are words filed in the database; no cut-off is given here.

What was measured:
MDCK = experiment: Cytotoxicity against MDCK cells at 100 uM; type: cell-based, Canis lupus familiaris; details: dog
Influenza A virus [1] = experiment: Antiviral activity against Influenza A virus (A/California/07/2009(H1N1)) infected in BALB/c mouse assessed as protection from virus-induced death at 12 umol/kg/day, intranasally administered bid on days 1 to 4 and day 0 of infection measured over 14 days; type: functional, organism-based
Influenza A virus [2] = experiment: Antiviral activity against Influenza A virus (A/WSN/1933(H1N1)) infected in MDCK cells assessed as inhibition of virus induced cytopathic effect; type: functional, organism-based
Mus musculus [3] = experiment: Antiinflammatory activity in mouse infected with Influenza A virus (A/VietNam/1194/2004(H5N1)) NIBRG-14 assessed as reduction in IL6 level in serum at 12 umol/kg/day, intranasally administered after 72 hrs by ELISA; type: functional, organism-based
Mus musculus [4] = experiment: Antiinflammatory activity in mouse infected with Influenza A virus (A/VietNam/1194/2004(H5N1)) NIBRG-14 assessed as reduction in IFN-gamma level in serum at 12 umol/kg/day, intranasally administered after 72 hrs by ELISA; type: functional, organism-based
Influenza A virus [5] = experiment: Antiviral activity against Influenza A virus (A/VietNam/1194/2004(H5N1)) NIBRG-14 infected in BALB/c mouse assessed as protection from virus-induced death at 12 umol/kg/day, intranasally administered bid on days 1 to 4 and day 0 of infection measured over 14 days; type: functional, organism-based
RAW264.7 [6] = experiment: Antiinflammatory activity in LPS-activated mouse RAW264.7 cells assessed as inhibition of LPS induced TNFalpha production treated 30 mins prior to LPS challenge measured after 6 hrs by RT-PCR analysis; type: functional, cell-based
[7] = biological target: Neuraminidase (Influenza A virus (strain A/Wilson-Smith/1933 H1N1) (Influenza A virus(strain A/WS/1933 H1N1)), UniProt P03470); experiment: Inhibition of Influenza A virus A/WSN/1933(H1N1)) neuraminidase in the presence of 2'-(4-methyl-umbelliferyl)-alphaD-N-acetylneuraminic acid substrate after 10 mins by fluorometric assay
Plasma [8] = experiment: Metabolic stability in Sprague-Dawley rat plasma assessed as compound degradation after 24 hrs by MALDI-TOF analysis; type: ADME, cell-free
Influenza A virus [9] = experiment: Antiviral activity against recombinant Influenza A virus (A/VietNam/1194/2004(H5N1)) NIBRG-14 assessed as inhibition of virus induced cytopathic effect; type: functional, organism-based
RAW264.7 [10] = experiment: Antiinflammatory activity in LPS-activated mouse RAW264.7 cells assessed as inhibition of LPS induced IL6 production treated 30 mins prior to LPS challenge measured after 6 hrs by RT-PCR analysis; type: functional, cell-based
Influenza A virus [11] = experiment: Antiviral activity against Influenza A virus (A/California/07/2009(H1N1)) infected in BALB/c mouse assessed as protection from virus-induced death at 1.2 umol/kg/day, intranasally administered bid on days 1 to 4 and day 0 of infection measured after 12 days; type: functional, organism-based
Plasma [12] = experiment: Metabolic stability in Sprague-Dawley rat plasma assessed as formation of compound 6 after 24 hrs by LC-QTOF MS analysis; type: ADME, cell-free
Influenza A virus [13] = experiment: Antiviral activity against Influenza A virus (A/California/07/2009(H1N1)) infected in BALB/c mouse assessed as protection from virus-induced death at 1.2 umol/kg/day, intranasally administered bid on days 1 to 4 and day 0 of infection measured after 14 days; type: functional
Influenza A virus [14] = experiment: Antiviral activity against Influenza A virus (A/California/07/2009(H1N1)) infected in BALB/c mouse assessed as protection from virus-induced death at 0.0012 umol/kg/day, intranasally administered bid on days 1 to 4 and day 0 of infection measured over 14 days; type: functional, organism-based
Influenza A virus [15] = experiment: Antiviral activity against Influenza A virus (A/California/07/2009(H1N1)) infected in BALB/c mouse assessed as protection from virus-induced death at 0.12 umol/kg/day, intranasally administered bid on days 1 to 4 and day 0 of infection measured over 14 days; type: functional
Influenza A virus [16] = experiment: Ratio of zanamivir EC50 to compound EC50 for Influenza A virus (A/VietNam/1194/2004(H5N1)) NIBRG-14; type: functional
Plasma [17] = experiment: Metabolic stability in Sprague-Dawley rat plasma assessed as formation of compound 6 after 24 hrs by MALDI-TOF analysis; type: ADME, cell-free
Influenza A virus [18] = experiment: Antiviral activity against Influenza A virus (A/California/07/2009(H1N1)) infected in BALB/c mouse assessed as protection from virus-induced death at 0.012 umol/kg/day, intranasally administered bid on days 1 to 4 and day 0 of infection measured over 14 days; type: functional
Plasma [19] = experiment: Metabolic stability in Sprague-Dawley rat plasma assessed as compound degradation after 24 hrs by LC-QTOF MS analysis; type: ADME, cell-free
Plasma [20] = experiment: Metabolic stability in Sprague-Dawley rat plasma after 24 hrs by MALDI-TOF analysis; type: ADME, cell-free
Influenza A virus [21] = experiment: Antiviral activity against Influenza A virus (A/VietNam/1194/2004(H5N1)) NIBRG-14 infected in BALB/c mouse assessed as protection from virus-induced death at 1.2 umol/kg/day, intranasally administered bid on days 1 to 4 and day 0 of infection measured over 14 days; type: functional, organism-based
Plasma [22] = experiment: Metabolic stability in Sprague-Dawley rat plasma after 24 hrs by LC-QTOF MS analysis; type: ADME, cell-free
Plasma [23] = experiment: Metabolic stability in Sprague-Dawley rat plasma assessed as release of zanamivir and caffiec acid after 24 hrs by MALDI-TOF analysis; type: ADME, cell-free
Plasma [24] = experiment: Metabolic stability in Sprague-Dawley rat plasma assessed as release of zanamivir and caffiec acid after 24 hrs by LC-QTOF MS analysis; type: ADME, cell-free

Chain of Neuraminidase (Influenza A virus (strain A/Wilson-Smith/1933 H1N1) (Influenza A virus(strain A/WS/1933 H1N1)), UniProt P03470) (P03470 whole entry): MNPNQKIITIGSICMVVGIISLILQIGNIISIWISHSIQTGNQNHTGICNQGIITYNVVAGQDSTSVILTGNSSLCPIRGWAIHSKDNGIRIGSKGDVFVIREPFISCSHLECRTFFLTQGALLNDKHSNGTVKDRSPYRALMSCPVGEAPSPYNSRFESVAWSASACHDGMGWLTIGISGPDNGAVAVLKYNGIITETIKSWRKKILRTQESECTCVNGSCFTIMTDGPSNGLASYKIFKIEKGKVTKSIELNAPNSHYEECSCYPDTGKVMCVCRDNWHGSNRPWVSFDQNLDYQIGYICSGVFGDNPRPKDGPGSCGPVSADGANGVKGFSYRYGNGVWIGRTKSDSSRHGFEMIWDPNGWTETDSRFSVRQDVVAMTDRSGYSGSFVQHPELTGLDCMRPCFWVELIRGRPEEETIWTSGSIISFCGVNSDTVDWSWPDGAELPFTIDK

| SMILES | Activity (MDCK) | EC50 (Influenza A virus [2]) | IC50 [7] | also measured |
| --- | --- | --- | --- | --- |
| CC(=O)N[C@H]1[C@H]([C@H](OC(=O)NCCCOC(=O)c2cc(N)ccc2O)[C@H](O)CO)OC(C(=O)O)=C[C@@H]1NC(=N)N | Non-toxic | 3.3 nM | 8.6 nM | Activity (Influenza A virus [1]): Active; Activity (Mus musculus [3]): Active; Activity (Mus musculus [4]): Active; Activity (Influenza A virus [5]): inactive; Activity (RAW264.7 [6]): Dose-dependent effect; Stability (Plasma [8]): Unstable; EC50 (Influenza A virus [9]): 430 nM; Activity (RAW264.7 [10]): Dose-dependent effect |
| CC(=O)N[C@H]1[C@H]([C@H](O)[C@H](O)CO)OC(C(=O)O)=C[C@@H]1NC(=N)N [ZANAMIVIR] | – | 3.5 nM | – | Activity (Influenza A virus [11]): inactive; Activity (Influenza A virus [1]): Active; Activity (Mus musculus [3]): Active; Activity (Mus musculus [4]): Active; Activity (Influenza A virus [5]): inactive |
| CC(=O)N[C@H]1[C@H]([C@H](O)[C@H](O)CO)OC(C(=O)OCCCOC(=O)c2cc(N)ccc2O)=C[C@@H]1NC(=N)N | Non-toxic | 16 nM | 996 nM | – |
| O=C(O)c1ccc2ccccc2c1O [CARBOXYNAPHTHOL] | Non-toxic | > 100000 nM | > 100000 nM | – |
| Nc1ccc(O)c(C(=O)O)c1 [MESALAMINE] | Non-toxic | > 100000 nM | > 100000 nM | Activity (Influenza A virus [1]): Active; Activity (RAW264.7 [6]): Dose-dependent effect; Activity (RAW264.7 [10]): Dose-dependent effect |
| CC(=O)N[C@H]1[C@H]([C@H](OC(=O)NCCCOC(=O)c2ccc3ccccc3c2O)[C@H](O)CO)OC(C(=O)O)=C[C@@H]1NC(=N)N | Non-toxic | 50 nM | 0.7 nM | – |
| CC(=O)N[C@H]1[C@H]([C@H](OC(=O)NCCCNC(=O)c2ccc3ccccc3c2O)[C@H](O)CO)OC(C(=O)O)=C[C@@H]1NC(=N)N | Non-toxic | 6.6 nM | 3.1 nM | – |
| CC(=O)N[C@H]1[C@H]([C@H](OC(=O)NCCCO)[C@H](O)CO)OC(C(=O)O)=C[C@@H]1NC(=N)N | Non-toxic | 105 nM | 11.7 nM | EC50 (Influenza A virus [9]): 820 nM |
| O=C(O)/C=C/c1ccc(O)c(O)c1 [CAFFEIC ACID] | Non-toxic | > 100000 nM | > 100000 nM | Activity (Influenza A virus [11]): inactive; Activity (Influenza A virus [1]): Active; Activity (RAW264.7 [6]): Dose-dependent effect; Activity (RAW264.7 [10]): Dose-dependent effect |
| CC(=O)N[C@H]1[C@H]([C@H](OC(=O)NCCCOC(=O)/C=C/c2ccc(O)c(O)c2)[C@H](O)CO)OC(C(=O)O)=C[C@@H]1NC(=N)N | Non-toxic | 1.4 nM | 2.9 nM | Stability (Plasma [12]): Unstable; Activity (Influenza A virus [13]): Active; Activity (Influenza A virus [1]): Active; Activity (Influenza A virus [14]): inactive; Activity (Mus musculus [3]): Active; Activity (Mus musculus [4]): Active; Activity (Influenza A virus [5]): Active; Activity (RAW264.7 [6]): Dose-dependent effect; Activity (Influenza A virus [15]): Active; Stability (Plasma [8]): Unstable; EC50 (Influenza A virus [9]): 50 nM; Activity (RAW264.7 [10]): Dose-dependent effect; Ratio EC50 (Influenza A virus [16]): 13; Stability (Plasma [17]): Unstable; Activity (Influenza A virus [18]): 40% |
| CC(=O)N[C@H]1[C@H]([C@H](O)[C@H](O)CO)OC(C(=O)OCCCOC(=O)c2ccc3ccccc3c2O)=C[C@@H]1NC(=N)N | Non-toxic | – | 590 nM | Stability (Plasma [19]): Unstable; Stability (Plasma [8]): Unstable |
| CC(=O)N[C@H]1[C@H]([C@H](O)[C@H](O)CO)OC(C(=O)OCCCOC(=O)/C=C/c2ccc3c(c2)OCO3)=C[C@@H]1NC(=N)N | Non-toxic | 28 nM | 3990 nM | – |
| CC(=O)N[C@H]1[C@H]([C@H](OC(=O)NCCCOC(=O)c2ccc(O)c(O)c2)[C@H](O)CO)OC(C(=O)O)=C[C@@H]1NC(=N)N | Non-toxic | 53 nM | 2.9 nM | – |
| CC(=O)N[C@H]1[C@H]([C@H](OC(=O)NCCCNC(=O)/C=C/c2ccc(O)c(O)c2)[C@H](O)CO)OC(C(=O)O)=C[C@@H]1NC(=N)N | Non-toxic | 5.1 nM | 41.3 nM | Activity (Influenza A virus [13]): 100%; Stability (Plasma [20]): Stable; Activity (Influenza A virus [5]): Active; Activity (Influenza A virus [21]): Active; Activity (Influenza A virus [15]): 50%; Stability (Plasma [22]): Stable; Activity (Influenza A virus [18]): inactive |
| CC(=O)N[C@H]1[C@H]([C@H](O)[C@H](O)CO)OC(C(=O)O)=C[C@@H]1N=C(N)N [ZANAMIVIR] | Non-toxic | – | – | – |
| O=C(O)/C=C/c1ccc2c(c1)OCO2 | Non-toxic | > 100000 nM | > 100000 nM | Activity (RAW264.7 [6]): Dose-dependent effect; Activity (RAW264.7 [10]): Dose-dependent effect |
| CC(=O)N[C@H]1[C@H]([C@H](OC(=O)NCCCOC(=O)/C=C/c2ccc3c(c2)OCO3)[C@H](O)CO)OC(C(=O)O)=C[C@@H]1NC(=N)N | Non-toxic | 66 nM | 5.4 nM | – |
| CC(=O)N[C@H]1[C@H]([C@H](O)[C@H](O)CO)OC(C(=O)OCCCOC(=O)/C=C/c2ccc(O)c(O)c2)=C[C@@H]1NC(=N)N | Non-toxic | 25 nM | 2850 nM | Stability (Plasma [23]): Unstable; Stability (Plasma [24]): Unstable |
